Test results reported in ChEMBL document CHEMBL1129758, “Rapid synthesis of novel dipeptide inhibitors of human collagenase and gelatinase using solid phase chemistry” (Bioorg Med Chem Lett, 1996).
Counter-ions that a name gives are not always drawn. *1 amine or outer side, *2 acyl side, *3 side chain or, on linkers, in order; H or OH if unused. Where a SMILES comes first, the peptide text is derived from it. [ ]: non-standard residue; d: D form. The star is where a group is joined. Hydrocinnamoyl = O=C(CCc1ccccc1)*; 3Pal = N[C@@H](Cc1cccnc1)C(=O)O; 2Thi = N[C@@H](Cc1cccs1)C(=O)O; CO = O=C([*:1])[*:2]; Tfa = O=C(C(F)(F)F)*; NHPh = c1ccc(N*)cc1

Key:
[1] = target: Matrix metalloproteinase-9 (Homo sapiens, UniProt P14780); assay: Compound was tested for its inhibitory activity against 92 kD gelatinase (MMP-9)
[2] = target: T1, Interstitial collagenase (Homo sapiens, UniProt P03956); assay: Inhibitory activity against human fibroblast collagenase (MMP-1)
T1 sequence (P03956 whole entry): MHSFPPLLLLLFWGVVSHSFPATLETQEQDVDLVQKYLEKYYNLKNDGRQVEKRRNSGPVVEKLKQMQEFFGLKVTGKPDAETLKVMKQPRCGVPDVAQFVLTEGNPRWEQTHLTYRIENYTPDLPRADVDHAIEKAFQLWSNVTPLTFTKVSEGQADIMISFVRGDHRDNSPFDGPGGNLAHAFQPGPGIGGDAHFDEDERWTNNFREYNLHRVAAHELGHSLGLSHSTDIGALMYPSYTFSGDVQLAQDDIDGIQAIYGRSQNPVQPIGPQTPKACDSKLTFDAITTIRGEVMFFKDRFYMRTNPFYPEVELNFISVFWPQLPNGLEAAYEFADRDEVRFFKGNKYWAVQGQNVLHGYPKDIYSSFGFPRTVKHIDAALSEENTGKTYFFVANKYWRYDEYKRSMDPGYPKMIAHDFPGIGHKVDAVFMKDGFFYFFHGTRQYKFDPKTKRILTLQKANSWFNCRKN

Sequence of Matrix metalloproteinase-9 (P14780 whole entry): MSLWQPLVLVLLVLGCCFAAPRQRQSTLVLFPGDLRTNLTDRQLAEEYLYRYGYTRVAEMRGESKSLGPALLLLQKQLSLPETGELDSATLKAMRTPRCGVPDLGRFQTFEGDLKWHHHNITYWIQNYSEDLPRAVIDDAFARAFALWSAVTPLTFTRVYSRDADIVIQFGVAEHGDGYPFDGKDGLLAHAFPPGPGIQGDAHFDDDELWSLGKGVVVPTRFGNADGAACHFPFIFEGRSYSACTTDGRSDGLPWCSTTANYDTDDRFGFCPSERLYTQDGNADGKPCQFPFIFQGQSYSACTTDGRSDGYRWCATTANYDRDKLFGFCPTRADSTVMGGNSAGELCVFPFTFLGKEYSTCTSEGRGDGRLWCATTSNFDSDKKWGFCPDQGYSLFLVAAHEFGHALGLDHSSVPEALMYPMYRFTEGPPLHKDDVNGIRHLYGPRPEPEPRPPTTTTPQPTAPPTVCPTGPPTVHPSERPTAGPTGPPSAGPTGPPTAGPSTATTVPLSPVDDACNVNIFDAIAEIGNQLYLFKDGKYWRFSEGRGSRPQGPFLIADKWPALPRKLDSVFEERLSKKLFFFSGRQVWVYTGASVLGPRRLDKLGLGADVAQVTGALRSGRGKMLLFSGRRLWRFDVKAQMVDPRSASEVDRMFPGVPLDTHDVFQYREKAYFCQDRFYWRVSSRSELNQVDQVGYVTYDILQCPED

SMILES | IC50 [1] [nM] | IC50 [2] [nM]
NC(=O)[C@H](Cc1ccccc1)NC(=O)[C@H](CS)NC(=O)c1ccc2c(c1)OCO2 | 19 | 215
NC(=O)[C@H](Cc1cccnc1)NC(=O)[C@H](CC(=O)O)NC(=O)c1ccc2[nH]nnc2c1 |  | 453
NC(=O)[C@H](Cc1ccccc1)NC(=O)[C@H](CS)NC(=O)c1ccoc1 | 84 | 171
NC(=O)[C@H](Cc1ccccc1)NC(=O)[C@H](CS)NC(=O)COc1ccccc1 | 34 | 598
NC(=O)[C@H](Cc1ccccc1)NC(=O)[C@H](CS)NC(=O)c1ccc(-c2ccccc2)cc1 | 21 | 425
NC(=O)[C@H](Cc1ccccc1)NC(=O)[C@H](CS)NC(=O)c1ccsc1 | 82 | 130
NC(=O)[C@H](Cc1ccccc1)NC(=O)[C@H](CS)NC(=O)c1ccc(-n2cccc2)nc1 | 15 | 250
CN(C)c1ccc(C(=O)N[C@@H](CS)C(=O)N[C@@H](Cc2ccccc2)C(N)=O)cc1 | 80 | 147
CC(=O)N[C@@H](CS)C(=O)N[C@@H](Cc1ccccc1)C(N)=O (Ac-Cys-Phe-NH2) |  | > 100000
CC(=O)N[C@@H](CS)C(=O)N[C@@H](Cc1c[nH]c2ccccc12)C(N)=O (Ac-Cys-Trp-NH2) |  | 5000
CC(=O)N[C@@H](CS)C(=O)N[C@H](C(N)=O)C(C)C (Ac-Cys-Val-NH2) |  | 7000
CC(=O)N[C@@H](CS)C(=O)N[C@@H](Cc1cccs1)C(N)=O (Ac-Cys-[2Thi]-NH2) |  | 4000
CC(=O)N[C@@H](CS)C(=O)N[C@@H](Cc1cccnc1)C(N)=O (Ac-Cys-[3Pal]-NH2) |  | 4000
NC(=O)[C@H](Cc1ccccc1)NC(=O)[C@H](CS)NC(=O)CCc1ccccc1 (Hydrocinnamoyl-Cys-Phe-NH2) | 38 | 3500

Compounds with a lower IC50 [2], results first:

IC50 [1] [nM] | IC50 [2] [nM] | SMILES
41 | 93 | NC(=O)[C@H](Cc1ccccc1)NC(=O)[C@H](CS)NC(=O)c1ccncc1
42 | 12 | NC(=O)[C@H](Cc1cccnc1)NC(=O)[C@H](CS)NC(=O)c1ccc2[nH]nnc2c1
71 | 26 | NC(=O)[C@H](Cc1ccccc1)NC(=O)[C@H](CS)NC(=O)c1cn[nH]c1
49 | 105 | NC(=O)[C@H](Cc1ccccc1)NC(=O)[C@H](CS)NC(=O)c1cccs1
41 | 83 | NC(=O)[C@H](Cc1ccccc1)NC(=O)[C@H](CS)NC(=O)c1ccc(=O)[nH]c1
24 | 8 | NC(=O)[C@H](Cc1ccccc1)NC(=O)[C@H](CS)NC(=O)c1ccc2[nH]nnc2c1
71 | 26 | NC(=O)[C@H](Cc1cccnc1)NC(=O)[C@H](CS)NC(=O)c1cn[nH]c1
102 | 34 | NC(=O)[C@H](Cc1cccs1)NC(=O)[C@H](CS)NC(=O)c1ccc2nn[nH]c2c1
> 1000 | 40 | NC(=O)[C@H](Cc1ccccc1)NC(=O)[C@H](CS)NC(=O)C(F)(F)F (Tfa-Cys-Phe-NH2)
> 1000 | 63 | COC(=O)[C@H](Cc1ccccc1)NC(=O)[C@H](CS)NC(=O)C(F)(F)F (Tfa-Cys-Phe-OMe)
11 | 40 | NC(=O)[C@H](Cc1ccccc1)NC(=O)[C@H](CS)NC(=O)Nc1ccccc1 ({NHPh-CO}-Cys-Phe-NH2)
